Data taken from US10350252B2, “Cocoa polyphenols and their use in the treatment or prevention of eosinophilic esophagitis” (NESTEC S.A., priority 2013, dated 2019).

System: eosinophils in the esophagus
Assay: Mouse model of eosinophilic esophagitis (epicutaneous Aspergillus fumigatus sensitization, intranasal challenge): eosinophil count in H&E stained esophagus
Type: in vivo, Balb/c mice
Conditions: compared to the positive control (3X ASP sensitized, 1x ASP challenged, untreated); test substance in the food; harvest on day 32
Experimental: It is the object of the invention to provide new and alternative solutions to the problem of preventing or treating eosinophilic esophagitis. […] The evaluation of ingredients which are useful in the treatment or prevention of eosinophilic esophagitis is performed using an established mouse model for eosinophilic esophagitis (Akei et al., “Epicutaneous antigen exposure primes for experimental eosinophilic esophagitis in mice”, Gastroenterology, 2005 September; 129(3):985-94). This model uses various parameters including the number of eosinophils in the esophagus as indicators for the effect on eosinophilic esophagitis. Accordingly, is ideally suited for the testing of compounds that are candidates for the treatment or prevention of eosinophilic esophagitis. FIG. 2. Eosinophil number in the esophagus. The esophagea were harvested and tissue histology was performed. Eosinophils were identified and counted on Hematoxylin & Eosin (H&E) stained slides per high powered field (hpf). The maximal number of eosinophils found in one hpf field in the whole esophagus is shown. The maximal number of eosinophils present in the esophagal epithelium is represented. […] Esophagi were harvest and stained with hematoxylin eosin and eosinophils were counted (maximum/high power field, see FIG. 2).

## Oc1cc(O)c2c(c1)O[C@H](c1ccc(O)c(O)c1)[C@H](O)C2 [epicatechin]
  reduction of eosinophils in the esophagus (maximum number per high power field): no effect
